# Reference: ChEMBL document CHEMBL1128860, “5-O-Carboxymethyl piperazide derivatives of serotonin: a new class of potent and selective 5-HT1D receptor agonists” (Bioorg Med Chem Lett, 1995)
# Assays:
# [1] = biological target: T1, 5-hydroxytryptamine receptor 2C (Homo sapiens, UniProt P28335); assay: (§1) Compound was tested for its affinity towards 5-hydroxytryptamine 1C receptor
# T1 sequence (P28335 whole entry): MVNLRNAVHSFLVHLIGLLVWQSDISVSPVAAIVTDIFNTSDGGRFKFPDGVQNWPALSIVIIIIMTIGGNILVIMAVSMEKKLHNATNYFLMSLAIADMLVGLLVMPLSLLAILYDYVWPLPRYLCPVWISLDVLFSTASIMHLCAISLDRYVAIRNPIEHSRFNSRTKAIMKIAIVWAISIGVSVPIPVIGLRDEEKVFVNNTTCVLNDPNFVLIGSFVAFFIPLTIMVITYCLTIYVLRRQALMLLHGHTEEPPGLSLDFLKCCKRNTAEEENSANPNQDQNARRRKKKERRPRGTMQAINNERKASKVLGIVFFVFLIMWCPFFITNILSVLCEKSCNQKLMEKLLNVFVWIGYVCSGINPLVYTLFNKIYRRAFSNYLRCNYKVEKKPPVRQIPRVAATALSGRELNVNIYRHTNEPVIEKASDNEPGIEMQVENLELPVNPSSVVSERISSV
# [2] = biological target: Serotonin 2 (5-HT2) receptor (Homo sapiens, UniProt P41595+P28223+P28335); assay: Compound was tested for its affinity towards 5-hydroxytryptamine 2 receptor; format: protein assay
# [3] = biological target: T2, 5-hydroxytryptamine receptor 3A (Homo sapiens, UniProt P46098); assay: (§2) Compound was tested for its affinity towards 5-hydroxytryptamine 3 receptor
# T2 sequence (P46098 whole entry): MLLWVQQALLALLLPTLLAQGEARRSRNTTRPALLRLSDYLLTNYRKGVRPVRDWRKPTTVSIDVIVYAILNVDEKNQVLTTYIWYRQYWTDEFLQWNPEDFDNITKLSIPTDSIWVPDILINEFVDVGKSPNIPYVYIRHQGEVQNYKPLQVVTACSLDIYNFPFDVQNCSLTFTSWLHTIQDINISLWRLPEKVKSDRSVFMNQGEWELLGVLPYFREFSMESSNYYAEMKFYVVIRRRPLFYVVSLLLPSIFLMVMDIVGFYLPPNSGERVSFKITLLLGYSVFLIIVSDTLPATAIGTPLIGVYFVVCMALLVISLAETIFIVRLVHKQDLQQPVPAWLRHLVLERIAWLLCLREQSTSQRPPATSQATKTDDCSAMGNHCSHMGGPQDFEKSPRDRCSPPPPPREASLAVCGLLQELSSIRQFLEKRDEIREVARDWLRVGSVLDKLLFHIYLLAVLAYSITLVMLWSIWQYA
# [4] = biological target: T3, Adrenergic receptor alpha-1 (Homo sapiens, UniProt P35348+P25100+P35368); assay: Compound was tested for its affinity towards Alpha-1 adrenergic receptor; format: protein assay
# T3 sequence (P35348 whole entry): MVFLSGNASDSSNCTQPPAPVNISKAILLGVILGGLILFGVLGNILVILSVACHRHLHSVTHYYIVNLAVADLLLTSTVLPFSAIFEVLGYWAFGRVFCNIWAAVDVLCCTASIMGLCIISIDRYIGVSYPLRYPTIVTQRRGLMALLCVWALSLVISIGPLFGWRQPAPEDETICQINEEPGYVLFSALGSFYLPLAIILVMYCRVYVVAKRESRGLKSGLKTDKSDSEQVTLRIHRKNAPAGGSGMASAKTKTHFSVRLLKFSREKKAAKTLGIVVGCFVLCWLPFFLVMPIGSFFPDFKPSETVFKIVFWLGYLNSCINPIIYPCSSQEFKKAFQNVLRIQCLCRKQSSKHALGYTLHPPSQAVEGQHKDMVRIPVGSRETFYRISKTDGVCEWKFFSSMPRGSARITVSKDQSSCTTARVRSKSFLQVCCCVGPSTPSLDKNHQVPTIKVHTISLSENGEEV
# T3 sequence (P25100 whole entry): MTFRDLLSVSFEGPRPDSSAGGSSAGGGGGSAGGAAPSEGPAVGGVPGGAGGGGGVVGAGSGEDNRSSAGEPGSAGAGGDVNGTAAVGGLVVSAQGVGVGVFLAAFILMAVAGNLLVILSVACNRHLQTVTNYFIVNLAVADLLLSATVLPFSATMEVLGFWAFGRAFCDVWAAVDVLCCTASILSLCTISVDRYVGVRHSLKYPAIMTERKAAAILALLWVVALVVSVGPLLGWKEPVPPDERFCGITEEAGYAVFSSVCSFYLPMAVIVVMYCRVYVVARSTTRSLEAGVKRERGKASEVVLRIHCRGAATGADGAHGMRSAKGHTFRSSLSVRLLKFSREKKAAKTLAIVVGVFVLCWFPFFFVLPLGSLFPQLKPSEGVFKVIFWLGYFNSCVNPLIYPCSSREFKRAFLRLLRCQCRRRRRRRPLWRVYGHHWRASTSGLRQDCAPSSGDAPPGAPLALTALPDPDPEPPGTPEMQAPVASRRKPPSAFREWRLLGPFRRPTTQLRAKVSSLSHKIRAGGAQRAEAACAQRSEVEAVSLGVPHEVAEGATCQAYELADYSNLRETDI
# T3 sequence (P35368 whole entry): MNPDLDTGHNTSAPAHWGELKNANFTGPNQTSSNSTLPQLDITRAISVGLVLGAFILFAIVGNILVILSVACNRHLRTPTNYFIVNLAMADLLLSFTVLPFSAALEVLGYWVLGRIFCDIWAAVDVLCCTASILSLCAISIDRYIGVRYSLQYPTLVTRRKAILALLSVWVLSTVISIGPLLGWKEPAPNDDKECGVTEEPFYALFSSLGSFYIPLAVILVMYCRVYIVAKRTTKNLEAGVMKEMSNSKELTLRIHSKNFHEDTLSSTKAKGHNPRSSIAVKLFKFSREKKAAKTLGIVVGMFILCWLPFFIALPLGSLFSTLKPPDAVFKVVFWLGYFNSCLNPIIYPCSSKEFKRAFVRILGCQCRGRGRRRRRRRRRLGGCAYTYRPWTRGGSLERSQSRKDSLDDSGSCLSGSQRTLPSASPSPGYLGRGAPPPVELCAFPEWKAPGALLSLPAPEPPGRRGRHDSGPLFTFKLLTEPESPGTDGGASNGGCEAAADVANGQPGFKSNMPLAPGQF
# D(2) dopamine receptor = D(2) dopamine receptor (Homo sapiens, UniProt P14416); assay: Compound was tested for its affinity towards dopaminergic (D2) receptor
# Chain of D(2) dopamine receptor (P14416 whole entry): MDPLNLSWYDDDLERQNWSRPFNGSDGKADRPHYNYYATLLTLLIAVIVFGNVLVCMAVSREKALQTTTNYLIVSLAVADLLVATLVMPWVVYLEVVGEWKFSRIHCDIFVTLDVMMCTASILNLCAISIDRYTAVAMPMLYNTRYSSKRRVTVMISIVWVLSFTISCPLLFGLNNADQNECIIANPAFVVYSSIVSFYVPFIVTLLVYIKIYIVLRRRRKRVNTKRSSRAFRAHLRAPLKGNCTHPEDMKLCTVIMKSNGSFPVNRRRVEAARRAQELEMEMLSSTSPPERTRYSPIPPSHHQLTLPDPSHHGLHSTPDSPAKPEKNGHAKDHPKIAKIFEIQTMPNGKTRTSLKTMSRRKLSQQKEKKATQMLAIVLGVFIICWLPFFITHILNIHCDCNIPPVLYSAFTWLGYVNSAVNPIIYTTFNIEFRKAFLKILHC
# Histamine H1 receptor = Histamine H1 receptor (Homo sapiens, UniProt P35367); assay: Compound was tested for its affinity towards histaminergic (H 1) receptor
# Chain of Histamine H1 receptor (P35367 whole entry): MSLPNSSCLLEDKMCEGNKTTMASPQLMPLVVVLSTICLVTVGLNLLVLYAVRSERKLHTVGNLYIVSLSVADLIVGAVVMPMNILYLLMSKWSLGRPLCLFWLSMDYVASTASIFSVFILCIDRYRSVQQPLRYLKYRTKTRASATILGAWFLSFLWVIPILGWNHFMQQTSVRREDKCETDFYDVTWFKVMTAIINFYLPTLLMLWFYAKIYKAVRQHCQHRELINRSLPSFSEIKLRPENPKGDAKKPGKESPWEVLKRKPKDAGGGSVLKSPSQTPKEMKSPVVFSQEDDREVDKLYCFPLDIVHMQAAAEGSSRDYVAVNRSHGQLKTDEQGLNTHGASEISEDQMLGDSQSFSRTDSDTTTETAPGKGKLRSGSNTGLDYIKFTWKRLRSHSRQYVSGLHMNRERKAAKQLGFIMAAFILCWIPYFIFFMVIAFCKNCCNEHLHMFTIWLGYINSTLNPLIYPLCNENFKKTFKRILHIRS
# [5] = biological target: T4, Muscarinic acetylcholine receptor M4 (Homo sapiens, UniProt P08173); assay: Compound was tested for its affinity towards muscarinic (M) receptor
# T4 sequence (P08173 whole entry): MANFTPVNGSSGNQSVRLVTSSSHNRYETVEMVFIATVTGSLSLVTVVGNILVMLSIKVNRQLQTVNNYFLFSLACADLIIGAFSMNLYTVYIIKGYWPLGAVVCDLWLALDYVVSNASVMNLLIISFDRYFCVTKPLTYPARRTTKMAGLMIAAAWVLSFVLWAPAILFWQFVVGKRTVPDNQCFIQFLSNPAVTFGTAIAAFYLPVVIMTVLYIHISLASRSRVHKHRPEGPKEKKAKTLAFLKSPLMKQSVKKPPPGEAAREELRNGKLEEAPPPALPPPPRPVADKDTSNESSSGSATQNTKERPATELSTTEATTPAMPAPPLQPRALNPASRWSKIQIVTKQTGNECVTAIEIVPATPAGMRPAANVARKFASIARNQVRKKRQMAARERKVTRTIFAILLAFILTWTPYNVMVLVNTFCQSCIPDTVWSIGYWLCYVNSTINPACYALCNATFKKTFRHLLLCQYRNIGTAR
# [6] = biological target: T5, 5-hydroxytryptamine receptor 4 (Homo sapiens, UniProt Q13639); assay: Compound was tested for its affinity towards 5-hydroxy tryptamine 4 receptor
# T5 sequence (Q13639 whole entry): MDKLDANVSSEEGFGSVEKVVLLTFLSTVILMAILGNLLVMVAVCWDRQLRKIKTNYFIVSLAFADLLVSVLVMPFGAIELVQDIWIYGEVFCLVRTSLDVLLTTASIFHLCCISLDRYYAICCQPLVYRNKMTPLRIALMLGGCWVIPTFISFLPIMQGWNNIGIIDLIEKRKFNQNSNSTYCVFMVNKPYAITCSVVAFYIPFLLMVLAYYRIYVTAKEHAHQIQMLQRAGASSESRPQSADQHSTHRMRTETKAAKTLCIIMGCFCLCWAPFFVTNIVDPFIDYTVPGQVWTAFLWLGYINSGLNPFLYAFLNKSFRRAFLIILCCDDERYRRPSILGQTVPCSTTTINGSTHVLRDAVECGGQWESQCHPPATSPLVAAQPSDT
# Oryctolagus cuniculus = organism: Oryctolagus cuniculus; assay: Compound was tested for its ability to contract rabbit saphenous vein; format: functional
# [7] = biological target: 5-hydroxytryptamine receptor 1D (Cavia porcellus, UniProt Q60484); assay: Binding affinity towards guinea pig 5-hydroxytryptamine 1D receptor was determined
# Chain of 5-hydroxytryptamine receptor 1D (Cavia porcellus, UniProt Q60484) (Q60484 whole entry): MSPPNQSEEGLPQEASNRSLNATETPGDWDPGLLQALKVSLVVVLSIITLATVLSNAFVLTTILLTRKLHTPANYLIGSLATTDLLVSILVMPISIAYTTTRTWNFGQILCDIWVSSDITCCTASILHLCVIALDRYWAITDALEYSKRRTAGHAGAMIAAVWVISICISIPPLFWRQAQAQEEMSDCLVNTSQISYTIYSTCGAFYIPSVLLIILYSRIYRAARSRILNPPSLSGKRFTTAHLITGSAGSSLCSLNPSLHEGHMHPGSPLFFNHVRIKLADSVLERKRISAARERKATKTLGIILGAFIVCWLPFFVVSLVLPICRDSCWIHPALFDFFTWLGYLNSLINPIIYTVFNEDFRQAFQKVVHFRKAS
# [8] = biological target: T6, 5-hydroxytryptamine receptor 1A (Homo sapiens, UniProt P08908); assay: Compound was tested for its ability to inhibit forskolin-stimulated activity of adenylate cyclase coupled to human 5-hydroxytryptamine 1A receptor in HeLa cells; value ranges from 95-320; format: functional, cell-based
# T6 sequence (P08908 whole entry): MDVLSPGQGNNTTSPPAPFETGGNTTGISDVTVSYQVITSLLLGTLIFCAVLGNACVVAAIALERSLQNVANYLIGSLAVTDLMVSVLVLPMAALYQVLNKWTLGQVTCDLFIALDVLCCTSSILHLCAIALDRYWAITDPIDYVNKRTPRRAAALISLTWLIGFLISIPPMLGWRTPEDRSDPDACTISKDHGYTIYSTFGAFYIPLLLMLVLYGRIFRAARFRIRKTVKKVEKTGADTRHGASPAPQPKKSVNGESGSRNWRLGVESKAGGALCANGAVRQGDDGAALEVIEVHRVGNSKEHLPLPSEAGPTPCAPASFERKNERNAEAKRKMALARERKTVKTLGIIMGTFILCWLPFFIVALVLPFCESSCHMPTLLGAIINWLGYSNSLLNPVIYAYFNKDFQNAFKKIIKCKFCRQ
# [9] = biological target: T6, 5-hydroxytryptamine receptor 1A; assay: Binding affinity towards cloned human 5-hydroxytryptamine 1A receptor was determined
# [10] = biological target: T7, 5-hydroxytryptamine receptor 2C (Rattus norvegicus, UniProt P08909); assay: as §1
# T7 sequence (P08909 whole entry): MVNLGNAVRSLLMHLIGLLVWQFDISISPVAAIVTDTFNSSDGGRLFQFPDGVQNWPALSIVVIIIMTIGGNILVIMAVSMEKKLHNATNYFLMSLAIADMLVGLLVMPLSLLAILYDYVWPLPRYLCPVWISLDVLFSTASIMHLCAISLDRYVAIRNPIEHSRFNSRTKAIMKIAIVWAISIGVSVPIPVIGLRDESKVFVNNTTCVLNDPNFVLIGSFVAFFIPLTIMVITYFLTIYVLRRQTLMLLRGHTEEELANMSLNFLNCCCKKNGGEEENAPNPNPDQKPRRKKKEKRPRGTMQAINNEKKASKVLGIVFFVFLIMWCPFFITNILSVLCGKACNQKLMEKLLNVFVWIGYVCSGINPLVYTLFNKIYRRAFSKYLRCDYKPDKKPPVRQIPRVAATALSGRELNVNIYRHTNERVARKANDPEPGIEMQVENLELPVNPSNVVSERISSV
# [11] = biological target: 5-hydroxytryptamine receptor 1D (Homo sapiens, UniProt P28221); assay: Binding affinity towards cloned human 5-hydroxytryptamine 1D receptor alpha was determined
# Chain of 5-hydroxytryptamine receptor 1D (Homo sapiens, UniProt P28221) (P28221 whole entry): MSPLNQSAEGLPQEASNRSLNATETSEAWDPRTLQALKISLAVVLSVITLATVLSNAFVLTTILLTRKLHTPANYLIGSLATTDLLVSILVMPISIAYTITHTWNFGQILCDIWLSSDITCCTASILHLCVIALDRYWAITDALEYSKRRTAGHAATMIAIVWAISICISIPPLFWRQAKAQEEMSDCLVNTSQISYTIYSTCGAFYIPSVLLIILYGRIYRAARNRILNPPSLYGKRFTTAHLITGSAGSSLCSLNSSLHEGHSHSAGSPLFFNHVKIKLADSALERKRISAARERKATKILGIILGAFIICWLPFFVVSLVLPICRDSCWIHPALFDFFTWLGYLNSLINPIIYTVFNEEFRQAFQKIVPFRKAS
# [12] = biological target: Serotonin 3 (5-HT3) receptor; assay: as §2; format: protein-complex assay
# [13] = biological target: T5, 5-hydroxytryptamine receptor 4; assay: Compound was tested for its affinity towards 5-hydroxytryptamine 4 receptor
# [14] = biological target: T6, 5-hydroxytryptamine receptor 1A; assay: Compound was tested for its ability to inhibit forskolin-stimulated activity of adenylate cyclase coupled to human 5-HT 1A receptor in HeLa cells; value ranges from 85-370; format: functional, cell-based
SMILES,IC50 [2],IC50 [4],IC50 (D(2) dopamine receptor),IC50 (Histamine H1 receptor),IC50 [5],pD2 (Oryctolagus cuniculus),Ki [9],Ki [11],further results
Cc1ccccc1N1CCN(C(=O)COc2ccc3[nH]cc(CCN)c3c2)CC1,> 10000 nM,> 10000 nM,> 10000 nM,> 10000 nM,> 10000 nM,–,–,–,IC50 [1]: > 10000 nM; IC50 [3]: > 10000 nM; IC50 [6]: > 10000 nM
CNS(=O)(=O)Cc1ccc2[nH]cc(CCN(C)C)c2c1,–,–,–,–,–,5.75,–,–,–
NCCc1c[nH]c2ccc(OCC(=O)NCC(=O)N[C@@H](Cc3ccc(O)cc3)C(N)=O)cc12,–,–,–,–,–,–,–,–,IC50 [7]: 60 nM
NCCc1c[nH]c2ccc(OCC(=O)N3CCN(c4cccc5ccccc45)CC3)cc12,> 1000 nM,> 1000 nM,> 1000 nM,> 1000 nM,> 1000 nM,–,8.9 nM,0.95 nM,EC50 [8]: 95 nM; IC50 [10]: > 1000 nM; IC50 [12]: > 1000 nM; IC50 [13]: > 1000 nM
COc1cccc(N2CCN(C(=O)COc3ccc4[nH]cc(CCN)c4c3)CC2)c1,–,–,–,–,–,–,9.8 nM,2 nM,EC50 [14]: 85 nM
NCCc1c[nH]c2ccc(OCC(=O)N3CCN(c4ccccc4)CC3)cc12,–,–,–,–,–,7.36,–,–,–
